Values quoted from earlier work in patent US6515132B2, “Process for the preparation of rosiglitazone maleate” (priority 2000, dated 2003).

Details: dose given in diet; comparative activity data for thiazolidinediones being clinically progressed

SMILES	Minimum effective dose [μmol/kg diet]
O=C1NC(=O)C(Cc2ccc3c(c2)CC[C@H](Cc2ccccc2)O3)S1 (stereo partly drawn) [Englitazone]	200
CN(CCOc1ccc(CC2SC(=O)NC2=O)cc1)c1ccccn1.O=C(O)/C=C\C(=O)O (stereo not drawn) [Rosiglitazone maleate, 5-[4-[2-(N-methyl-N-(2-pyridyl)amino)ethoxy]benzyl]thiazolidine-2,4-dione maleate]	3
CN(CCOc1ccc(CC2SC(=O)NC2=O)cc1)c1ccccn1 (stereo not drawn) [Rosiglitazone, 5-[4-[2-(N-methyl-N-(2-pyridyl)amino)ethoxy]benzyl]thiazolidine-2,4-dione]	3
